Assay results: patent US9056209B2, “Apigenin-containing composition” (Kao Corporation, priority 2009, dated 2015)

Assay: Evaluation of stability of apigenin in composition (apigenin retention ratio by HPLC)
Format: physicochemical
Conditions: for Apigenin retention ratio (amount of apigenin stored at 50° C./amount of apigenin stored at −5° C.): apigenin about 9 ppm, stored one month
Method: Twenty gram of Roman chamomile was extracted with 200 mL of 50% butanediol for 7 days at room temperature, and then the extract was filtered to obtain 155 mL of a Roman chamomile extract. The evaporation residue in 1 mL of the extract was 18.6 mg, and the amount of apigenin in 1 mL of the extract was 305 ppm. This extract was used as the apigenin-containing extract in the following experiments. BHT was added to each of the solutions of various pH conditions, in an amount of 0, 1, 10, 100 and 500 ppm, respectively, and thus test solutions (final apigenin concentration: about 9 ppm) were prepared. The respective test solutions were stored for one month under the conditions of −5° C. and 50° C., and then the amount of apigenin in each of the solutions was measured by HPLC (Inertsil ODS-3 (internal diameter 3.0 mm, length 150 mm, particle size 5 μm) manufactured by GL Sciences, Inc., eluent: 50% aqueous solution of 25 mM potassium dihydrogen phosphate/50% methanol, column temperature: 40° C., detection: UV 340 nm). The ratio of the amount of apigenin stored at 50° C. with respect to that stored at −5° C. was determined as the apigenin retention ratio.

apigenin retention ratio (in words) (mass ratio apigenin/BHT about 1 or greater, or pH of the solution less than 7, storage for a long time): high retention ratios were maintained | apigenin retention ratio (in words) (mass ratio apigenin/BHT about less than 1 (BHT 10 ppm or more) and pH 7 or higher): the apigenin retention ratio decreased | Apigenin retention ratio (amount of apigenin stored at 50° C./amount of apigenin stored at −5° C.) (pH 6, BHT 0 ppm): 103% | Apigenin retention ratio (amount of apigenin stored at 50° C./amount of apigenin stored at −5° C.) (pH 6, BHT 1 ppm): 102% | Apigenin retention ratio (amount of apigenin stored at 50° C./amount of apigenin stored at −5° C.) (pH 6, BHT 10 ppm): 98% | Apigenin retention ratio (amount of apigenin stored at 50° C./amount of apigenin stored at −5° C.) (pH 6, BHT 100 ppm): 96% | Apigenin retention ratio (amount of apigenin stored at 50° C./amount of apigenin stored at −5° C.) (pH 6, BHT 500 ppm): 96% | Apigenin retention ratio (amount of apigenin stored at 50° C./amount of apigenin stored at −5° C.) (pH 6.5, BHT 0 ppm): 100% | Apigenin retention ratio (amount of apigenin stored at 50° C./amount of apigenin stored at −5° C.) (pH 6.5, BHT 1 ppm): 94% | Apigenin retention ratio (amount of apigenin stored at 50° C./amount of apigenin stored at −5° C.) (pH 6.5, BHT 10 ppm): 98% | Apigenin retention ratio (amount of apigenin stored at 50° C./amount of apigenin stored at −5° C.) (pH 6.5, BHT 100 ppm): 96% | Apigenin retention ratio (amount of apigenin stored at 50° C./amount of apigenin stored at −5° C.) (pH 6.5, BHT 500 ppm): 99% | Apigenin retention ratio (amount of apigenin stored at 50° C./amount of apigenin stored at −5° C.) (pH 7, BHT 0 ppm): 96% | Apigenin retention ratio (amount of apigenin stored at 50° C./amount of apigenin stored at −5° C.) (pH 7, BHT 1 ppm): 96% | Apigenin retention ratio (amount of apigenin stored at 50° C./amount of apigenin stored at −5° C.) (pH 7, BHT 10 ppm): 98% | Apigenin retention ratio (amount of apigenin stored at 50° C./amount of apigenin stored at −5° C.) (pH 7, BHT 100 ppm): 82% | Apigenin retention ratio (amount of apigenin stored at 50° C./amount of apigenin stored at −5° C.) (pH 7, BHT 500 ppm): 35% | Apigenin retention ratio (amount of apigenin stored at 50° C./amount of apigenin stored at −5° C.) (pH 8, BHT 0 ppm): 98% | Apigenin retention ratio (amount of apigenin stored at 50° C./amount of apigenin stored at −5° C.) (pH 8, BHT 1 ppm): 99% | Apigenin retention ratio (amount of apigenin stored at 50° C./amount of apigenin stored at −5° C.) (pH 8, BHT 10 ppm): 91% | Apigenin retention ratio (amount of apigenin stored at 50° C./amount of apigenin stored at −5° C.) (pH 8, BHT 100 ppm): 73% | Apigenin retention ratio (amount of apigenin stored at 50° C./amount of apigenin stored at −5° C.) (pH 8, BHT 500 ppm): 11%
Structure (SMILES): O=c1cc(-c2ccc(O)cc2)oc2cc(O)cc(O)c12 [Apigenin, apigenin]
